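Growth conditions: 96-well plates. Treatment: test compound, 48 hours, 5 concentrations. Analysis: linear interpolation between bracketing concentrations; unreached endpoints set to highest concentration. GI50 = concentration required for 50% inhibition of growth.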 Active and inactive are the calls of the source. Rule as the data show it: active = GI50 up to about 1.1 µM and inactive = higher.
Assays:
Assay in all cases: NCI-60 cell line screen, 48 h
[1] = tested on: IGROV-1
[2] = tested on: NCI-H522
[3] = tested on: UACC-62
[4] = tested on: SK-MEL-28
[5] = tested on: TK-10
[6] = tested on: UACC-257
[7] = tested on: SF-295
[8] = tested on: OVCAR-5
[9] = tested on: OVCAR-3
[10] = tested on: SK-MEL-5
[11] = tested on: HT-29
[12] = tested on: COLO 205
[13] = tested on: MOLT-4
[14] = tested on: HCC 2998
[15] = tested on: OVCAR-8
[16] = tested on: A498
[17] = tested on: ACHN

Compound | GI50 [1] | GI50 [2] | GI50 [3] | GI50 [4] | GI50 [5] | GI50 [6] | GI50 [7] | GI50 [8] | GI50 [9] | GI50 [10] | GI50 [11] | GI50 [12] | GI50 [13] | GI50 [14] | GI50 [15] | GI50 [16] | GI50 [17]
C1OC1C1CO1 (configuration not stated) | > 100 µM (inactive) | 33.6 µM (inactive) | 13.6 µM (inactive) | 51.8 µM (inactive) | > 100 µM (inactive) | 27.9 µM (inactive) | 10.3 µM (inactive) | > 100 µM (inactive) | 39.7 µM (inactive) | 45.2 µM (inactive) | > 100 µM (inactive) | > 100 µM (inactive) | 3.28 µM (inactive) | 96.4 µM (inactive) | > 100 µM (inactive) |  | 
Cc1ccc(C)c(NC(=O)CC2C(=O)Nc3ccccc3S2(=O)=O)c1 (configuration not stated) | 52.8 µM (inactive) |  | 46.2 µM (inactive) | 72.9 µM (inactive) | > 100 µM (inactive) | > 100 µM (inactive) | > 100 µM (inactive) | > 100 µM (inactive) | 42 µM (inactive) | 27.7 µM (inactive) | > 100 µM (inactive) |  | > 100 µM (inactive) | 77.8 µM (inactive) | 37.2 µM (inactive) | 30.2 µM (inactive) | 48.2 µM (inactive)
O=[N+]([O-])c1ccc2nc(/C(=N/Nc3ccccc3)C(O)c3ccco3)c(O)nc2c1 (configuration not stated) | > 100 µM (inactive) | 9.55 µM (inactive) | 45.7 µM (inactive) |  |  | > 100 µM (inactive) | > 100 µM (inactive) |  |  | 44.5 µM (inactive) | > 100 µM (inactive) | > 100 µM (inactive) | > 100 µM (inactive) | > 100 µM (inactive) | > 100 µM (inactive) | > 100 µM (inactive) | > 100 µM (inactive)
CC#CC#C/C=C1\C=CC2(OC=CC2O)O1 (configuration not stated) | > 16.7 µM (inactive) | 5.65 µM (inactive) | 9.59 µM (inactive) | 13.3 µM (inactive) | > 23.3 µM (inactive) | 16 µM (inactive) | > 23.3 µM (inactive) | 4.23 µM (inactive) | 7.52 µM (inactive) | > 12.9 µM (inactive) | 7.91 µM (inactive) | 3.28 µM (inactive) | 10.5 µM (inactive) | > 16.2 µM (inactive) | 14.3 µM (inactive) |  | > 23.3 µM (inactive)
O=c1[nH]c(Br)nc2c(Br)c[nH]c12 | > 100 µM (inactive) | 31.3 µM (inactive) | > 100 µM (inactive) | > 100 µM (inactive) | > 100 µM (inactive) | > 100 µM (inactive) | > 100 µM (inactive) | > 100 µM (inactive) | > 100 µM (inactive) | > 100 µM (inactive) | > 100 µM (inactive) | > 100 µM (inactive) | > 100 µM (inactive) |  | > 100 µM (inactive) | > 100 µM (inactive) | > 100 µM (inactive)
Cc1nc(-n2nc(-c3ccccc3)cc2-c2ccccc2)sc1C(=O)CC(=O)C(=O)Nc1ccc(O)cc1 | > 100 µM (inactive) | > 100 µM (inactive) | > 100 µM (inactive) |  | > 100 µM (inactive) | > 100 µM (inactive) | > 100 µM (inactive) | > 100 µM (inactive) | > 100 µM (inactive) |  | > 100 µM (inactive) | > 100 µM (inactive) | > 100 µM (inactive) | > 100 µM (inactive) | > 100 µM (inactive) | > 100 µM (inactive) | > 100 µM (inactive)
Cc1cc2c3ccccc3n3c2c2c1OC1(C)CCC(C2C1)C3(C)C (configuration not stated) | > 25 µM (inactive) | > 25 µM (inactive) | > 25 µM (inactive) | > 25 µM (inactive) | > 25 µM (inactive) |  |  | > 25 µM (inactive) | > 25 µM (inactive) | > 25 µM (inactive) | > 25 µM (inactive) | > 25 µM (inactive) | > 25 µM (inactive) | > 25 µM (inactive) | > 25 µM (inactive) |  | > 25 µM (inactive)
O=C(O)c1cc(=O)c2[nH]c3ccccc3c2s1 | > 100 µM (inactive) | > 100 µM (inactive) | > 100 µM (inactive) | > 100 µM (inactive) | > 100 µM (inactive) | > 100 µM (inactive) | > 100 µM (inactive) | > 100 µM (inactive) | > 100 µM (inactive) | > 100 µM (inactive) |  | > 100 µM (inactive) | > 100 µM (inactive) | > 100 µM (inactive) | > 100 µM (inactive) |  | > 100 µM (inactive)
Cc1ccc(S(=O)(=O)Nc2ccccc2C(C)(C)C)cc1 | 30.7 µM (inactive) |  | 16.1 µM (inactive) | 19.7 µM (inactive) | 37.1 µM (inactive) | 16.1 µM (inactive) | 13.7 µM (inactive) | 34.6 µM (inactive) | 17.2 µM (inactive) | 15.2 µM (inactive) | 16.2 µM (inactive) |  | 20.9 µM (inactive) | 42.8 µM (inactive) | 29.6 µM (inactive) | 24 µM (inactive) | 28.1 µM (inactive)
C(=C1/CCCCC([n+]2ccccc2)=N1)/c1ccccc1 |  | > 100 µM (inactive) | > 100 µM (inactive) | > 100 µM (inactive) |  |  | > 100 µM (inactive) | > 100 µM (inactive) | > 100 µM (inactive) |  | > 100 µM (inactive) | > 100 µM (inactive) | > 100 µM (inactive) | > 100 µM (inactive) | > 100 µM (inactive) |  | > 100 µM (inactive)
COc1ccc(C[C@H](N)C(=O)NC2C(CO)OC(n3cnc4c(N(C)C)ncnc43)C2O)cc1 (some centres not stated) | 0.451 µM (active) |  | 0.152 µM (active) | 0.187 µM (active) | 0.67 µM (active) | 0.358 µM (active) | 0.34 µM (active) | 5.31 µM (inactive) | 0.273 µM (active) | 0.234 µM (active) | 0.262 µM (active) | 0.154 µM (active) | 0.13 µM (active) | 0.29 µM (active) | 0.182 µM (active) | 1.04 µM (active) | 1.01 µM (active)
O=C1OC(=O)C2C1C1(c3ccccc3)OC2(c2ccccc2)c2c(Br)c(Br)c(Br)c(Br)c21 (configuration not stated) | > 100 µM (inactive) | > 100 µM (inactive) | > 100 µM (inactive) |  | > 100 µM (inactive) | > 100 µM (inactive) | > 100 µM (inactive) | > 100 µM (inactive) | > 100 µM (inactive) | > 100 µM (inactive) | > 100 µM (inactive) | > 100 µM (inactive) | > 100 µM (inactive) |  | > 100 µM (inactive) | > 100 µM (inactive) | 
CCOCc1cc(=O)c2c(OC)cc3c(c2o1)CCC(C)(C)O3 | > 100 µM (inactive) | > 100 µM (inactive) | > 100 µM (inactive) | > 100 µM (inactive) | > 100 µM (inactive) | > 100 µM (inactive) | > 100 µM (inactive) | > 100 µM (inactive) | > 100 µM (inactive) | > 100 µM (inactive) | > 100 µM (inactive) |  | > 100 µM (inactive) | > 100 µM (inactive) | > 100 µM (inactive) |  | > 100 µM (inactive)
Oc1ccc([Te]CCNCC[Te]c2ccc(O)cc2)cc1 | 27.9 µM (inactive) |  | 17 µM (inactive) |  | 30.3 µM (inactive) | 36 µM (inactive) | 4.32 µM (inactive) | 16 µM (inactive) |  | 11.9 µM (inactive) | 15.6 µM (inactive) | 7.13 µM (inactive) | 4.49 µM (inactive) | 12.8 µM (inactive) | 16.3 µM (inactive) | 13.4 µM (inactive) | 20.1 µM (inactive)
COc1cc2ccnc3c2c(c1OC)-c1coc(SC)c1-3 | > 100 µM (inactive) | 32.4 µM (inactive) | 86.1 µM (inactive) |  | > 100 µM (inactive) | > 100 µM (inactive) | 13.4 µM (inactive) | > 100 µM (inactive) |  | 54.7 µM (inactive) | 94.8 µM (inactive) | > 100 µM (inactive) | 22.1 µM (inactive) | > 100 µM (inactive) | 35.2 µM (inactive) | 19.5 µM (inactive) | > 100 µM (inactive)
O=C1c2ccccc2C(=O)c2c(O)c(NCCNCCO)cc(O)c21 | 1.91 µM (inactive) |  | 11.5 µM (inactive) | 5.11 µM (inactive) | 5 µM (inactive) | 6.59 µM (inactive) | 10.2 µM (inactive) | 10.2 µM (inactive) | 4.39 µM (inactive) | 3.44 µM (inactive) | 3.23 µM (inactive) |  | 3.02 µM (inactive) | 3.78 µM (inactive) | 3.01 µM (inactive) | 7.26 µM (inactive) | 2.17 µM (inactive)
Clc1ccc2nc(-c3ccccc3)nc(Cl)c2c1 | > 100 µM (inactive) |  | 49.8 µM (inactive) | 80.5 µM (inactive) | 21.7 µM (inactive) | 45 µM (inactive) | 46.3 µM (inactive) | > 100 µM (inactive) | 49.2 µM (inactive) | > 100 µM (inactive) | > 100 µM (inactive) | > 100 µM (inactive) | > 100 µM (inactive) | 40.2 µM (inactive) | 37 µM (inactive) | > 100 µM (inactive) | 24.9 µM (inactive)
CC(=O)O/N=C(/C)c1ccccc1O | > 100 µM (inactive) | > 100 µM (inactive) | > 100 µM (inactive) | > 100 µM (inactive) | > 100 µM (inactive) | > 100 µM (inactive) | > 100 µM (inactive) | > 100 µM (inactive) | > 100 µM (inactive) |  | > 100 µM (inactive) | > 100 µM (inactive) | > 100 µM (inactive) | > 100 µM (inactive) | > 100 µM (inactive) |  | > 100 µM (inactive)
COc1ccc2[nH]c3c(c2c1)CCN(C)CC3 | > 100 µM (inactive) |  | > 100 µM (inactive) | > 100 µM (inactive) | > 100 µM (inactive) | > 100 µM (inactive) | > 100 µM (inactive) | > 100 µM (inactive) | > 100 µM (inactive) | > 100 µM (inactive) | > 100 µM (inactive) | > 100 µM (inactive) | > 100 µM (inactive) | > 100 µM (inactive) | > 100 µM (inactive) | > 100 µM (inactive) | > 100 µM (inactive)

— ChEMBL document CHEMBL1201862, “PubChem BioAssay data set” (2004)
